Legend:
HeLa = assay: Cytotoxicity against human HeLa cells after 3 days by SRB assay; assay type: functional, cell-based; conditions: 72 h
Tubulin (Sus scrofa) = Tubulin (Sus scrofa) (UniProt P02554+P02550); assay: Displacement of [3H]-colchicine from porcine tubulin at 20 uM preincubated for 1 hr followed by radioligand addition measured after 30 mins by DE81 filter-based scintillation spectrometric assay; assay type: protein assay
Tubulin = Tubulin (Sus scrofa, UniProt P02554+P02550); assay: Inhibition of porcine tubulin polymerization by UV-Vis microplate reader analysis; assay type: protein assay

Sequence of Tubulin (Sus scrofa) (P02550 whole entry, looked up): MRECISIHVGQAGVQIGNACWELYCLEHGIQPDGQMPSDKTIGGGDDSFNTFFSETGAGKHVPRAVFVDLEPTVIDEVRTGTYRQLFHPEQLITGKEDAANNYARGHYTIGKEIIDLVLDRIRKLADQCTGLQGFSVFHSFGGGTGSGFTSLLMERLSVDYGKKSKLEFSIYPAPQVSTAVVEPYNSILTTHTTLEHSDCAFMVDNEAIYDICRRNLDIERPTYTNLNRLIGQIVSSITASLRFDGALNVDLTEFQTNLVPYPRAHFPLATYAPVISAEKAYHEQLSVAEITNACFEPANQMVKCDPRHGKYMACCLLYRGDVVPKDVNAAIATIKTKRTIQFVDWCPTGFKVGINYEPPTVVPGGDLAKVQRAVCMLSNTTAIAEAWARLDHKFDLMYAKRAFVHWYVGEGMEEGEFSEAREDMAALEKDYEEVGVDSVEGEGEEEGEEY
Sequence of Tubulin (Sus scrofa) (P02554 whole entry, looked up): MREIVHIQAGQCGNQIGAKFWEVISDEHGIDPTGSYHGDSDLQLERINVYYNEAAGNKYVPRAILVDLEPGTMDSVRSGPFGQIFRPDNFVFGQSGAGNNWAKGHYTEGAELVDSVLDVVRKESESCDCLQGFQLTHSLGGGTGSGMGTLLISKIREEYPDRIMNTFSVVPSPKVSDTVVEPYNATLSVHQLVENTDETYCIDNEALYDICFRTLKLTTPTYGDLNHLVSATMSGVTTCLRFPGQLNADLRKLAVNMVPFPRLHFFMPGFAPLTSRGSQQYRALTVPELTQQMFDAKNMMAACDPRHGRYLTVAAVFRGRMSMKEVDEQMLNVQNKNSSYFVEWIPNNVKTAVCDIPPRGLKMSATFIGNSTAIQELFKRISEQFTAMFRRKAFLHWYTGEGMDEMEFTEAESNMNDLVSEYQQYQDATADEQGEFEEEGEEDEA

inhibition (Tubulin (Sus scrofa)) | IC50 (Tubulin) | Compound | IC50 (HeLa)
 |  | COc1ccc(CNc2c(-c3ccccc3O)nc3cccc(F)n23)cc1 | 46 nM
 |  | COc1cc2c(c(OC)c1OC)-c1ccc(OC)c(=O)cc1[C@@H](NC(C)=O)CC2 [COLCHICINE] | 37 nM
 |  | COc1ccc(CNc2c(-c3ccccc3OC)nc3ccccn23)cc1 | 230 nM
 |  | COc1ccc(CNc2c(-c3cc(Cl)cc(Cl)c3O)nc3ccccn23)cc1 | 4160 nM
 |  | COc1ccc(CNc2c(-c3c(O)cc(OC)cc3OC)nc3ccccn23)cc1 | > 10000 nM
 |  | COc1ccc(CNc2c(-c3ccccc3NS(C)(=O)=O)nc3ccccn23)cc1 | > 10000 nM
72.2% | 3.41 µM | COc1ccc(CNc2c(-c3ccccc3O)nc3ccc(F)cn23)cc1 | 13 nM
 |  | COc1ccc(Nc2c(-c3ccccc3O)nc3ccccn23)cc1 | > 10000 nM
66% | 4.35 µM | COc1ccc(CNc2c(-c3ccccc3O)nc3ccccn23)cc1 | 15 nM
 |  | COc1ccc(CNc2c(-c3ccccc3NC(C)=O)nc3ccccn23)cc1 | > 10000 nM
 |  | COc1ccc(CCNc2c(-c3ccccc3O)nc3ccccn23)cc1 | 8220 nM
 |  | COc1ccc(CNc2c(-c3ccccc3O)nc3ccc(Br)cn23)cc1 | 810 nM
41.1% | 7.16 µM | COc1ccc(CNc2c(-c3ccccc3O)nc3cnccn23)cc1 | 37 nM
 |  | COc1ccc(CNc2c(-c3cc([N+](=O)[O-])ccc3O)nc3ccccn23)cc1 | 210 nM
